pEC50, pIC50: −log10 of the molar value.
Key:
[1] = tested on: NLRP3 inflammasome; experiment: PBMC assay: IL-1β in LPS-stimulated human PBMCs (MSD); assay type: cell-based; details: human PBMCs, 100 ng/ml LPS for 6 hrs, IL-1β in supernatant via MSD, read-out: IL1β IC50
Experimental: The activity of a compound according to the present invention can be assessed by in vitro methods.
Peripheral venous blood was collected from healthy individuals and human peripheral blood mononuclear cells (PBMCs) were isolated from blood by Ficoll-Histopaque (Sigma-Aldrich, A0561) density gradient centrifugation. After isolation, PBMCs were stored in liquid nitrogen for later use. Upon thawing, PBMC cell viability was determined in growth medium (RPMI media supplemented with 10% fetal bovine serum, 1% Pen-Strep and 1% L-glutamine). […] PBMCs were added at a density of 7.5×10^4 cells per well and incubated for 30 min in a 5% CO2 incubator at 37° C. LPS stimulation was performed by addition of 100 ng/ml LPS (final concentration, Invivogen, tlrl-smlps) for 6 hrs followed by collection of cellular supernatant and the analysis of IL-1β (μM) and TNF cytokines levels (μM) via MSD technology according to manufacturers' guidelines (MSD, K151A0H).

[2] = tested on: TNF; experiment: PBMC assay: TNF cytokine levels in LPS-stimulated human PBMCs (MSD); assay type: cell-based; details: 100 ng/ml LPS for 6 hrs, TNF in supernatant via MSD
Experimental: Peripheral venous blood was collected from healthy individuals and human peripheral blood mononuclear cells (PBMCs) were isolated from blood by Ficoll-Histopaque (Sigma-Aldrich, A0561) density gradient centrifugation. After isolation, PBMCs were stored in liquid nitrogen for later use. Upon thawing, PBMC cell viability was determined in growth medium (RPMI media supplemented with 10% fetal bovine serum, 1% Pen-Strep and 1% L-glutamine). Compounds were spotted in a 1:3 serial dilution in DMSO and diluted to the final concentration in 30 μl medium in 96 well plates (Falcon, 353072). PBMCs were added at a density of 7.5×10^4 cells per well and incubated for 30 min in a 5% CO2 incubator at 37° C. LPS stimulation was performed by addition of 100 ng/ml LPS (final concentration, Invivogen, tlrl-smlps) for 6 hrs followed by collection of cellular supernatant and the analysis of IL-1β (μM) and TNF cytokines levels (μM) via MSD technology according to manufacturers' guidelines (MSD, K151A0H).
The IC50 values (for IL-1β) and EC50 values (TNF) were obtained on compounds of the invention/examples, and are depicted in the following table: […]

pIC50 [1]	pEC50 [2]	SMILES
6.80	< 5.00	CC(C)c1nn(CC(=O)Nc2ccc(=O)n(C)n2)c(=O)c2cc(C3CC3)nn12 [Final Cpd 81]
6.55	< 5.00	CC(C)c1nn(CC(=O)Nc2ccc3ncnn3c2)c(=O)c2cc(C3CC3)nn12 [Final Cpd 82]
< 5.00	< 5.00	CC(C)c1nn(CC(=O)Nc2cc(C(F)(F)F)ncn2)c(=O)c2cc(C3CC3)nn12 [Final Cpd 83]
6.20	< 5.00	Cc1nnc2n1CC(NC(=O)Cn1nc(C(C)C)n3nc(C4CC4)cc3c1=O)CC2 (centres unmarked) [Final Cpd 84]
6.47	< 5.00	CC(C)c1nn(CC(=O)Nc2cc(C(F)F)[nH]n2)c(=O)c2cc(C3CC3)nn12 [Final Cpd 85]
< 5.00	< 5.00	CC(C)c1nn(CC(=O)Nc2ccc(C3CC3)nn2)c(=O)c2cc(C3CC3)nn12 [Final Cpd 86]
7.20	5.21	CC(C)c1nn(CC(=O)Nc2ccc3cncn3c2)c(=O)c2cc(C3CC3)nn12 [Final Cpd 87]
5.89	< 5.00	CC(C)c1nn(CC(=O)NC2CC(C(C)(C)O)C2)c(=O)c2cc(C3CC3)nn12 (centres unmarked) [Final Cpd 88]
6.64	< 5.00	Cc1nc2ccc(NC(=O)Cn3nc(C(C)C)n4nc(C5CC5)cc4c3=O)cn2n1 [Final Cpd 89]
6.41	< 5.00	CC(C)c1nn(CC(=O)Nc2ccn3ccnc3c2)c(=O)c2cc(C3CC3)nn12 [Final Cpd 90]
6.51	< 5.00	CC(C)c1nn(CC(=O)Nc2ccc3nccn3c2)c(=O)c2cc(C3CC3)nn12 [Final Cpd 91]
6.04	< 5.00	CC(C)c1nn(CC(=O)Nc2ccc3nnc(C(F)F)n3c2)c(=O)c2cc(C3CC3)nn12 [Final Cpd 92]
5.82	< 5.00	CC(C)c1nn(CC(=O)Nc2ccn3cnnc3c2)c(=O)c2cc(C3CC3)nn12 [Final Cpd 93]
5.63	< 5.00	Cc1nnc2cc(NC(=O)Cn3nc(C(C)C)n4nc(C5CC5)cc4c3=O)ccn12 [Final Cpd 94]
6.43	< 5.00	CC(C)c1nn(CC(=O)Nc2cc(Br)c3nncn3c2)c(=O)c2cc(C3CC3)nn12 [Final Cpd 95]
6.62	< 5.00	CC(C)c1nn(CC(=O)Nc2ccncc2F)c(=O)c2cc(C3CC3)nn12 [Final Cpd 96]
6.70	< 5.00	Cc1nccc(NC(=O)Cn2nc(C(C)C)n3nc(C4CC4)cc3c2=O)c1F [Final Cpd 97]
< 5.00	< 5.00	CC(C)c1nn(CC(=O)Nc2nccc(C(F)(F)F)n2)c(=O)c2cc(C3CC3)nn12 [Final Cpd 98]
6.31	< 5.00	CC(C)c1nn(CC(=O)Nc2ccc3nc(C#N)cn3c2)c(=O)c2cc(C3CC3)nn12 [Final Cpd 99]
6.51	< 5.00	CC(C)c1nn(CC(=O)Nc2ccc3ncoc3c2)c(=O)c2cc(C3CC3)nn12 [Final Cpd 100]
5.11	< 5.00	CC(C)c1nn(CC(=O)Nc2cnc3ccnn3c2)c(=O)c2cc(C3CC3)nn12 [Final Cpd 101]
6.28	< 5.00	COc1c(NC(=O)Cn2nc(C(C)C)n3nc(C4CC4)cc3c2=O)ccnc1C [Final Cpd 102]
6.25	< 5.00	CC(C)c1nn(CC(=O)Nc2ccn3ncnc3c2)c(=O)c2cc(C3CC3)nn12 [Final Cpd 103]
5.79	< 5.00	Cc1cc(NC(=O)Cn2nc(C(C)C)n3nc(C4CC4)cc3c2=O)c(C)cn1 [Final Cpd 104]
6.74	< 5.00	CC(C)c1nn(CC(=O)Nc2ccc3nc(C(F)F)cn3c2)c(=O)c2cc(C3CC3)nn12 [Final Cpd 105]

pIC50 [1]	pEC50 [2]	SMILES
6.15	< 5.00	COc1ncccc1NC(=O)Cn1nc(C(C)C)n2nc(C3CC3)cc2c1=O [Final Cpd 106]
5.37	< 5.00	COc1ncc(NC(=O)Cn2nc(C(C)C)n3nc(C4CC4)cc3c2=O)cn1 [Final Cpd 107]
6.27	< 5.00	CC(C)c1nn(CC(=O)Nc2ccc3c(C#N)ncn3c2)c(=O)c2cc(C3CC3)nn12 [Final Cpd 108]
5.97	< 5.00	CC(C)c1nn(CC(=O)Nc2cccnc2Cl)c(=O)c2cc(C3CC3)nn12 [Final Cpd 109]
6.23	< 5.00	CC(C)c1nn(CC(=O)Nc2ccc(Cl)nc2)c(=O)c2cc(C3CC3)nn12 [Final Cpd 110]
6.08	< 5.00	COc1ccc(NC(=O)Cn2nc(C(C)C)n3nc(C4CC4)cc3c2=O)cn1 [Final Cpd 111]
6.06	< 5.00	CC(C)c1nn(CC(=O)Nc2cncc(F)c2)c(=O)c2cc(C3CC3)nn12 [Final Cpd 112]
6.07	< 5.00	Cc1ncccc1NC(=O)Cn1nc(C(C)C)n2nc(C3CC3)cc2c1=O [Final Cpd 113]
6.46	< 5.00	Cc1cn2nc(NC(=O)Cn3nc(C(C)C)n4nc(C5CC5)cc4c3=O)ccc2n1 [Final Cpd 114]
5.76	< 5.00	CC(C)c1nn(CC(=O)Nc2cncnc2)c(=O)c2cc(C3CC3)nn12 [Final Cpd 115]
5.91	< 5.00	CC(C)c1nn(CC(=O)Nc2ccc(C(F)F)nc2)c(=O)c2cc(C3CC3)nn12 [Final Cpd 116]
5.85	< 5.00	CC(C)c1nn(CC(=O)Nc2cncc(Cl)c2)c(=O)c2cc(C3CC3)nn12 [Final Cpd 117]
6.96	< 5.00	CC(C)c1nn(CC(=O)Nc2ccncc2)c(=O)c2cc(C3CC3)nn12 [Final Cpd 118]
6.28	< 5.00	CC(C)c1nn(CC(=O)Nc2cccnc2)c(=O)c2cc(C3CC3)nn12 [Final Cpd 119]
6.26	< 5.00	Cc1nccc(NC(=O)Cn2nc(C(C)C)n3nc(C4CC4)cc3c2=O)c1Cl [Final Cpd 120]
5.51	< 5.00	COc1cncc(NC(=O)Cn2nc(C(C)C)n3nc(C4CC4)cc3c2=O)c1 [Final Cpd 121]
6.09	< 5.00	Cc1ccc(NC(=O)Cn2nc(C(C)C)n3nc(C4CC4)cc3c2=O)cn1 [Final Cpd 122]
5.98	< 5.00	CC(C)c1nn(CC(=O)Nc2ccnc(N(C)C)c2)c(=O)c2cc(C3CC3)nn12 [Final Cpd 123]
6.21	< 5.00	Cc1c(NC(=O)Cn2nc(C(C)C)n3nc(C4CC4)cc3c2=O)ccnc1Cl [Final Cpd 124]
5.03	< 5.00	COc1ccncc1NC(=O)Cn1nc(C(C)C)n2nc(C3CC3)cc2c1=O [Final Cpd 125]
7.15	< 5.00	CC(C)c1nn(CC(=O)Nc2ccc3cn[nH]c3c2)c(=O)c2cc(C3CC3)nn12 [Final Cpd 126]
6.74	< 5.00	Cc1cc(NC(=O)Cn2nc(C(C)C)n3nc(C4CC4)cc3c2=O)ccn1 [Final Cpd 127]
5.59	< 5.00	CC(C)c1nn(CC(=O)Nc2ccc3cnnn3c2)c(=O)c2cc(C3CC3)nn12 [Final Cpd 128]
6.17	< 5.00	COc1cc(NC(=O)Cn2nc(C(C)C)n3nc(C4CC4)cc3c2=O)ccn1 [Final Cpd 129]

Reference: US20230203044A1, “PYRAZOLO[1,5-D][1,2,4]TRIAZINE-5(4H)-ACETAMIDES AS INHIBITORS OF THE NLRP3 INFLAMMASOME” (JANSSEN PHARMACEUTICA NV, priority 2020, published 2023)
